The results in this text go back to patent publication US20090131443A1, “METHOD FOR PREVENTION AND/OR TREATMENT OF RHEUMATOID ARTHRITIS” (Kowa Co., Ltd., priority 2005, published 2009).

The test relates to rats of a collagen-induced arthritis model. Nature of the test: Both-hindlimb edema suppression in rats of a collagen-induced arthritis model. It counts as in vivo, Lewis female rats (LEW/Crj). As to conditions: solo administration; for Edema Index: mean ± standard error, control group 6.85 ± 0.33; for Percent edema suppression: vs control group. On the procedure: The effect on suppressing both-hindlimb edema of 2-benzyl-5-(4-chlorophenyl)-6-[4-(methylthio)phenyl]-2H-pyridazin-3-one (synthesized through the aforementioned method) and that of tacrolimus (Prograf (injection: 5 mg), product of Fujisawa Pharmaceutical Co., Ltd.) were determined both in the cases of combined administration and solo administration through the following procedure (by use of rats of a collagen-induced arthritis model) (FDA, CBER, CDER, CDRH: Guidance for industry—Clinical development programs for drugs, devices, and biological products for the treatment of rheumatoid arthritis (RA)—. (1999)). Lewis female rats (LEW/Crj) (obtained from Charles River Laboratories Japan, Inc.) were employed as test animals.
For each 8-week-old LEW/Crj rat, the volume of a portion from the ankle to the toe tip of each hindlimb was measured by means of a plethysmometer for small animals (TK-101CMP, product of Unicom), and a total of the two volumes was employed as a volume of the hindlimbs (hereinafter referred to as both-hindlimb volume) at the start of the test (hereinafter referred to as Pre value). By use of the Pre value as an index, the rats were divided into groups which are alike from group to group, through one-parameter-based block randomization.
The collagen emulsion for sensitization employed for inducing arthritis in rats was prepared by homogenizing a 0.3% Type II collagen liquid (product of Collagen Research Center), adjuvant peptide (product of Peptide Institute, Inc.), and adjuvant incomplete Freund (product of DIFCO) by means of a Handy Micro Homogenizer (product of Microtec Nition) under cooling with ice. The thus-prepared emulsion was intracutaneously injected to 10 sites in the dorsum of each rat at 0.1 mL/site, to thereby initially sensitize the rat. Seven days after initial sensitization, the same emulsion (0.12 mL) was intracutaneously injected to the tail head of the rat for booster sensitization.
Administration of one drug or two drugs was carried out the day after initial sensitization to day 26. To the 2-benzyl-5-(4-chlorophenyl)-6-[4-(methylthio)phenyl]-2H-pyridazin-3-one solo administration group, the drug was orally administered twice; in the morning (9:00 to 11:00) and in the evening (15:30 to 17:30) at a dose of 3 mg/kg. To the tacrolimus sole administration group, the drug was orally administered once in the afternoon (11:30 to 13:30) at a dose of 0.1, 0.3, or 1 mg/kg. To the combined administration group (2-benzyl-5-(4-chlorophenyl)-6-[4-(methylthio)phenyl]-2H-pyridazin-3-one and tacrolimus), 2-benzyl-5-(4-chlorophenyl)-6-[4-(methylthio)phenyl]-2H-pyridazin-3-one was orally administered in the morning (9:00 to 11:00) and in the evening (15:30 to 17:30) at a dose of 3 mg/kg, and tacrolimus was orally administered in the afternoon (11:30 to 13:30) at a dose of 0.3 mg/kg.
14 days, 18 days, 22 days, and 26 days after initial sensitization, both-hindlimb volume was measured. Volume of both-hindlimb edema was calculated by subtracting the Pre value from the thus-measured value.
Table 1 and FIG. 1 show Edema Index of the groups of rats, the groups being the 2-benzyl-5-(4-chlorophenyl)-6-[4-(methylthio)phenyl]-2H-pyridazin-3-one solo administration group, the tacrolimus solo administration group, and the combined administration group. The Edema Index of each group is an average of the indices obtained from 6 to 12 rats ±a standard error. Percent edema suppression represents a value obtained from the relationship:
100×[(average both-hindlimb edema volume of the control group)−(average both-hindlimb edema volume of each administration group)]/(average both-hindlimb edema volume of the control group). Relative factor represents a ratio of (average both-hindlimb edema volume of each administration group)/(average both-hindlimb edema volume of the control group).

As for `CSc1ccc(-c2nn(Cc3ccccc3)c(=O)cc2-c2ccc(Cl)cc2)cc1` [2-benzyl-5-(4-chlorophenyl)-6-[4-(methylthio)phenyl]-2H-pyridazin-3-one], where the note is “3 mg/kg”, the “Edema Index suppression effect (in words)” value is listed as “do not result in potent Edema Index suppression effects”. For the same compound, the “Edema Index” value (3 mg/kg orally twice daily, day 1 to day 26 after initial sensitization, sum of both-hindlimb edema volumes at days 14, 18, 22, 26) was 5.58 ± 0.63 mL. Moreover, for the setting “3 mg/kg orally twice daily, ratio of group average edema volume to control group”, the Relative factor stood at 0.81. For the setting “3 mg/kg orally twice daily”, this compound gave a Percent edema suppression of 19%.

Take `C=CC[C@@H]1/C=C(\C)C[C@H](C)C[C@H](OC)[C@H]2O[C@@](O)(C(=O)C(=O)N3CCCC[C@H]3C(=O)O[C@H](/C(C)=C/[C@@H]3CC[C@@H](O)[C@H](OC)C3)[C@H](C)[C@@H](O)CC1=O)[C@H](C)C[C@@H]2OC` [Tacrolimus, tacrolimus]: the “Edema Index” value worked out at 6.75 ± 0.31 mL (0.1 mg/kg orally once daily, day 1 to day 26); 6.09 ± 0.30 mL (0.3 mg/kg orally once daily, day 1 to day 26); 5.04 ± 0.20 mL (1 mg/kg orally once daily, day 1 to day 26). Also, the Relative factor runs as follows: (0.1 mg/kg orally once daily, ratio to control group) 0.99; (0.3 mg/kg orally once daily, ratio to control group) 0.89; (1 mg/kg orally once daily, ratio to control group) 0.74. The Percent edema suppression by setting is: (0.1 mg/kg orally once daily) 1%; (0.3 mg/kg orally once daily) 11%; (1 mg/kg orally once daily) 26%. Moreover, where the note is “up to 1 mg/kg”, the “Edema Index suppression effect (in words)” value is reported as “do not result in potent Edema Index suppression effects”.
